Laboratory results as given in PubChem BioAssay (NCI).
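Five compound concentrations were applied to cells in 96-well plates for 48 hours; endpoints were derived by simple linear interpolation of the resulting dose-response curve. GI50 is the concentration that inhibits growth by half. TGI: total growth inhibition.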

What was measured:
Assay in all cases: NCI anticancer screen, dose series, 48 h
[1] = tested on: HS 578T breast
[2] = tested on: RPMI-8226 leukemia
[3] = tested on: MALME-3M melanoma
[4] = tested on: NCI/ADR-RES ovarian
[5] = tested on: SNB-19 CNS
[6] = tested on: CCRF-CEM leukemia
[7] = tested on: NCI-H23 lung
[8] = tested on: NCI-H522 lung
[9] = tested on: SF-539 CNS
[10] = tested on: A498 renal
[11] = tested on: DU-145 prostate
[12] = tested on: SK-MEL-28 melanoma
[13] = tested on: IGROV1 ovarian
[14] = tested on: UACC-257 melanoma
[15] = tested on: ACHN renal
[16] = tested on: CAKI-1 renal
[17] = tested on: BT-549 breast
[18] = tested on: 786-0 renal
[19] = tested on: HOP-62 NSCLC
[20] = tested on: SK-OV-3 ovarian
[21] = tested on: UACC-62 melanoma
[22] = tested on: MDA-MB-231 breast
[23] = tested on: M14 melanoma
[24] = tested on: OVCAR-8 ovarian
[25] = tested on: OVCAR-5 ovarian
[26] = tested on: SF-268 CNS
[27] = tested on: K-562 leukemia
[28] = tested on: HT29 colon
[29] = tested on: MDA-MB-435
[30] = tested on: NCI-H226 lung
[31] = tested on: SF-295 CNS
[32] = tested on: MOLT-4 leukemia
[33] = tested on: HOP-92 NSCLC
[34] = tested on: TK-10 renal
[35] = tested on: SK-MEL-5 melanoma
[36] = tested on: U251 CNS
[37] = tested on: HCT-116 colon
[38] = tested on: SN12C renal
[39] = tested on: KM12 colon
[40] = tested on: A549 NSCLC
[41] = tested on: RXF 393 renal
[42] = tested on: PC-3 prostate
[43] = tested on: COLO 205 colon
[44] = tested on: LOX IMVI melanoma
[45] = tested on: T-47D breast
[46] = tested on: OVCAR-4 ovarian
[47] = tested on: NCI-H460 lung
[48] = tested on: HCT-15 colon
[49] = tested on: EKVX NSCLC
[50] = tested on: SNB-75 CNS
[51] = tested on: HCC-2998 colon
[52] = tested on: OVCAR-3 ovarian
[53] = tested on: SK-MEL-2 melanoma
[54] = tested on: MCF7 breast
[55] = tested on: HL-60(TB) leukemia
[56] = tested on: SW-620 colon
[57] = tested on: SR leukemia
[58] = tested on: UO-31 renal
[59] = tested on: MDA-N

COC(=O)C[C@@H]1CC=CC(=O)/C1=C(O)/C=C/c1ccccc1
GI50 [1]: 3.49 µM | TGI [1]: > 49.2 µM | GI50 [2]: 0.303 µM | TGI [2]: 1.34 µM | GI50 [3]: 1.56 µM | TGI [3]: 3.33 µM | GI50 [4]: 0.308 µM | TGI [4]: 1.97 µM | GI50 [5]: 1.57 µM | TGI [5]: 4.84 µM | GI50 [6]: 0.264 µM | TGI [6]: 1.19 µM | GI50 [7]: 0.7 µM | TGI [7]: 2.13 µM | GI50 [8]: 0.32 µM | TGI [8]: 0.959 µM | GI50 [9]: 0.433 µM | TGI [9]: 7.15 µM | GI50 [10]: 1.87 µM | TGI [10]: 3.82 µM | GI50 [11]: 0.695 µM | TGI [11]: 1.96 µM | GI50 [12]: 1.19 µM | TGI [12]: 2.61 µM | GI50 [13]: 0.216 µM | TGI [13]: 0.52 µM | GI50 [14]: 1.34 µM | TGI [14]: 2.86 µM | GI50 [15]: 0.268 µM | TGI [15]: 0.743 µM | GI50 [16]: 0.408 µM | TGI [16]: 1.41 µM | GI50 [17]: 1.48 µM | TGI [17]: 2.86 µM | GI50 [18]: 0.519 µM | TGI [18]: 1.56 µM | GI50 [19]: 0.56 µM | TGI [19]: 1.86 µM | GI50 [20]: 1.7 µM | TGI [20]: 3.88 µM | GI50 [21]: 1.42 µM | TGI [21]: 3.98 µM | GI50 [22]: 1.46 µM | TGI [22]: 4.22 µM | GI50 [23]: 0.578 µM | TGI [23]: 1.69 µM | GI50 [24]: 0.602 µM | TGI [24]: 3.76 µM | GI50 [25]: 1.84 µM | TGI [25]: 4.57 µM | GI50 [26]: 1.37 µM | TGI [26]: 3.75 µM | GI50 [27]: 0.364 µM | GI50 [28]: 0.268 µM | TGI [28]: 0.774 µM | GI50 [29]: 0.357 µM | TGI [29]: 1.41 µM | GI50 [30]: 2.05 µM | TGI [30]: 7.55 µM | GI50 [31]: 2.05 µM | TGI [31]: 4.42 µM | GI50 [32]: 1.68 µM | TGI [32]: 5.46 µM | GI50 [33]: 1.33 µM | TGI [33]: 2.82 µM | GI50 [34]: 0.916 µM | TGI [34]: 5.69 µM | GI50 [35]: 1.41 µM | TGI [35]: 2.79 µM | GI50 [36]: 0.354 µM | TGI [36]: 1.28 µM | GI50 [37]: 0.169 µM | TGI [37]: 0.329 µM | GI50 [38]: 0.462 µM | TGI [38]: 2.99 µM | GI50 [39]: 0.233 µM | TGI [39]: 0.705 µM | GI50 [40]: 4.23 µM | TGI [40]: 22 µM | GI50 [41]: 0.295 µM | TGI [41]: 0.888 µM | GI50 [42]: 0.856 µM | TGI [42]: 3.76 µM | GI50 [43]: 0.401 µM | TGI [43]: 1.46 µM | GI50 [44]: 0.172 µM | TGI [44]: 0.332 µM | GI50 [45]: 0.549 µM | TGI [45]: 2.66 µM | GI50 [46]: 1.54 µM | TGI [46]: 2.96 µM | GI50 [47]: 2.08 µM | TGI [47]: 8.2 µM | GI50 [48]: 0.294 µM | TGI [48]: 1.15 µM | GI50 [49]: 1.85 µM | TGI [49]: 3.91 µM | GI50 [50]: 1.05 µM | TGI [50]: 3.21 µM | GI50 [51]: 1.72 µM | TGI [51]: 3.25 µM | GI50 [52]: 0.3 µM | TGI [52]: 0.93 µM | GI50 [53]: 1.63 µM | TGI [53]: 3.56 µM | GI50 [54]: 0.374 µM | TGI [54]: 3.04 µM | GI50 [55]: 1.24 µM | TGI [55]: 4.31 µM | GI50 [56]: 0.338 µM | TGI [56]: 1.33 µM | GI50 [57]: 0.275 µM | GI50 [58]: 0.303 µM | TGI [58]: 0.826 µM

CCCCSCCC(N)P(=O)(O)O (stereo not drawn)
TGI [1]: > 100 µM | TGI [2]: > 100 µM | TGI [4]: > 100 µM | TGI [5]: > 100 µM | TGI [6]: > 100 µM | TGI [7]: > 100 µM | TGI [8]: > 100 µM | TGI [11]: > 100 µM | TGI [12]: > 100 µM | TGI [59]: > 100 µM | TGI [13]: > 100 µM | TGI [14]: > 100 µM | TGI [15]: > 100 µM | TGI [16]: > 100 µM | TGI [19]: > 100 µM | TGI [20]: > 100 µM | TGI [22]: > 100 µM | TGI [23]: > 100 µM | TGI [24]: > 100 µM | TGI [25]: > 100 µM | TGI [27]: > 100 µM | TGI [28]: > 100 µM | TGI [29]: > 100 µM | TGI [30]: > 100 µM | TGI [31]: > 100 µM | TGI [32]: > 100 µM | TGI [33]: > 100 µM | TGI [34]: > 100 µM | TGI [35]: > 100 µM | TGI [36]: > 100 µM | TGI [37]: > 100 µM | TGI [38]: > 100 µM | TGI [40]: > 100 µM | TGI [42]: > 100 µM | TGI [43]: > 100 µM | TGI [44]: > 100 µM | TGI [45]: > 100 µM | TGI [46]: > 100 µM | TGI [47]: > 100 µM | TGI [48]: > 100 µM | TGI [50]: > 100 µM | TGI [51]: > 100 µM | TGI [52]: > 100 µM | TGI [53]: > 100 µM | TGI [54]: > 100 µM | TGI [55]: > 100 µM | TGI [56]: > 100 µM | TGI [57]: > 100 µM | TGI [58]: > 100 µM
